The structures appear in SMILES notation.

The subject of one experiment is CWR22RV1 cells. The experiment is described as follows: Inhibition of CWR22RV1 cell proliferation (CCK-8). In kind it is cell-based. As to conditions: Homo sapiens, CWR22Rv1, 144 h, read-out: IC50 on CWR22RV1. The method, then: Test Example 2 Biological Determination of the Inhibitory Effect of the Compound on CWR22RV1 Cell Proliferation
Experimental Materials: • CWR22RV1 cell line (Cell bank of Chinese Academy of Sciences, TCHu100) • FBS (Gibco, Cat. No. 10099-141) • 0.01M PBS (Biosharp, Cat. No. 162262) • RIPM1640 (Hyclone, Cat. No. 308090.01) • Penicillin-Streptomycin (Hyclone, Cat. No. SV30010) • Cell counting kit-8(Signalway Antibody, Cat. No. CP002) • DMSO (Sigma, Cat. No. D5879) • Centrifuge Tube, 15 ml (Excell Bio, Cat. No. CS015-0001) • Cell Culture Dish, (Excell Bio, Cat. No. CS016-0128) • 96-well cell culture cluster (Corning, Cat. No. 3599)
(1) CWR22RV1 cells were subcultured with cell culture medium, and well-growth cells were inoculated in 96-well plates, with 80 μL per well. The number of cells in each well was 1500, and the plate was cultured overnight in a 37° C., 5% CO2 cell incubator.
(2) The drug was prepared as a 30 mM stock solution using dimethyl sulfoxide (DMSO). before use, the stock solution was diluted 3 times with DMSO, and then diluted by a 3 times gradient to obtain 9 concentration gradients. The compound at each concentration was further diluted 200 times with the culture solution (to ensure that the DMSO concentration in the culture system was 0.1%), and each concentration was repeated 2 wells. 20 μL of the diluted compound was added to the cell culture wells (with final concentrations of 10 μM, 3.3 μM, 1.1 μM . . . ), and gently shaked to mix. In addition, three negative control wells containing only cells and three blank control wells containing only culture medium (6 wells each containing 20 μL DMSO 200-fold diluted with culture medium) were set.
(1) After being cultured for 6 days, 10 μL CCK-8 was added to each well, and the cells were further cultured in a 5% CO2 cell incubator at 37° C. for 2.5 hours.
(2) The absorbance (OD value) was measured at 450 nm with a multifunctional microplate reader.
(3) The data were analyzed with the Dose-response-inhibition equation in the software GraphPad Prism6, and IC50 values were obtained.
Turning to `Cc1nnc(C[C@@H]2N=C(c3ccc(Cl)cc3)c3c(sc(C)c3C)-n3c(C)nnc32)o1` [Compound 21, (S)-2-((4-(4-chlorophenyl)-2,3 ,9-trimethyl-6H-thieno[3,2-f][1,2,4]triazolo[4,3-a][1,4]diaza-6-yl)methyl)-5-methyl-1,3,4-oxodiazole], the IC50 was determined as 33 nM. Still for that read-out and setting: with `Cc1sc2c(c1C)C(c1ccc(Cl)cc1)=N[C@@H](Cc1nnc(CO)o1)c1nnc(C)n1-2` [Compound 7, (S)-(5-((4-(4-chlorophenyl)-2,3,9-trimethyl-6H-thieno[3,2-f][1,2,4]triazolo[4,3-a][1,4]diaza-6-yl)methyl)-1,3,4-oxodiazole-2-yl)methanol] the figure was 89 nM; with `Cc1sc2c(c1C)C(c1ccc(Cl)cc1)=N[C@@H](Cc1nc(CCl)co1)c1nnc(C)n1-2` [Compound 27, 2-(4-(4-chlorophenyl)-2,3,9-trimethyl-6H-thieno[3,2-f][1,2,4]triazolo[4,3-a][1,4]diaza-6-yl)-4-chloromethyloxazole], 29 nM; with `Cc1sc2c(c1C)C(c1ccc(Cl)cc1)=N[C@@H](Cc1nncn1C(C)C)c1nnc(C)n1-2` [Compound 25, (S)-4-(4-chlorophenyl)-6-((4-isopropyl-4H-1,2,4--3-yl)methyl)-2,3,9-trimethyl-6H-thieno[3,2-f][1,2,4]triazolo[4,3-a][1,4]diazepine], 1310 nM. Consider `Cc1sc2c(c1C)C(c1ccc(Cl)cc1)=N[C@@H](Cc1nnc(C(C)(C)C)o1)c1nnc(C)n1-2` [Compound 23, (S)-2-(t-butyl)-5-((4-(4-chlorophenyl)-2,3,9-trimethyl-6H-thieno[3,2-f][1,2,4]triazolo[4,3-a][1,4]diaza-6-yl)methyl) -1,3,4-oxodiazole], for which the 50% inhibitory concentration (IC50) stood at 179 nM.

Staying with this experiment, now noted: Homo sapiens, CWR22Rv1, 144 h; cultured for 6 days, CCK-8; read-out: IC50 on CWR22RV1.
As for `Cc1sc2c(c1C)C(c1ccc(Cl)cc1)=N[C@@H](Cc1nnc(CN3CCS(=O)(=O)CC3)o1)c1nnc(C)n1-2` [Compound 12, (S)-4-((5-((4-(4-chlorophenyl)-2,3,9-trimethyl-6H-thieno[3,2-f] [1,2,4]triazolo[4,3-a][1,4]diaza-6-yl)methyl)-1,3,4-oxodiazole-2-yl)methyl)thiomorpholine 1,1-dioxide], the IC50 was found to be 110 nM. The same measure, in the same setting: with `Cc1noc(C[C@@H]2N=C(c3ccc(Cl)cc3)c3c(sc(C)c3C)-n3c(C)nnc32)n1` [Compound 30, (S)-5-((4-(4-chlorophenyl)-2,3,9-trimethyl-6H-thieno[3,2-f][1,2,4]triazolo[4,3-a][1,4]diaza-6-yl)methyl)-3-methyl-1,2,4-oxodiazole] the figure was 47 nM. On the same count and under the same terms, with `CC(=O)NCc1nnc(C[C@@H]2N=C(c3ccc(Cl)cc3)c3c(sc(C)c3C)-n3c(C)nnc32)o1` [Compound 9, (S)-N-((5-((4-(4-chlorophenyl)-2,3,9-trimethyl-6H-thieno[3,2-f][1,2,4]triazolo[4,3-a][1,4]diaza-6-yl)methyl)-1,3,4-oxodiazole-2-yl)methyl)acetylamine] the figure was 110 nM. Still for that read-out and setting: with `Cc1sc2c(c1C)C(c1ccc(Cl)cc1)=N[C@@H](Cc1nnc(CCl)o1)c1nnc(C)n1-2` [Compound 4, (S)-2-chloromethyl-5-((4-(4-chlorophenyl)-2,3,9-trimethyl-6H-thieno[3,2-f][1,2,4]triazolo[4,3-a][1,4]diaza-6-yl)methyl)-1,3,4-oxodiazole] the figure was 28 nM; with `COC(=O)C1CCN(Cc2nnc(C[C@@H]3N=C(c4ccc(Cl)cc4)c4c(sc(C)c4C)-n4c(C)nnc43)o2)CC1` [Compound 15, (S)-methyl-1-((5-((4-(4-chlorophenyl)-2,3,9-trimethyl-6H-thieno[3,2-f][1,2,4]triazolo[4,3-a][1,4]diaza-6-yl)methyl) -1,3,4-oxodiazole-2-yl)methyl)piperidin-4-carboxylic ester], 59 nM. Regarding `Cc1sc2c(c1C)C(c1ccc(Cl)cc1)=N[C@@H](Cc1nnc(CNS(C)(=O)=O)o1)c1nnc(C)n1-2` [Compound 10, (S)-N-((5-((4-(4-chlorophenyl)-2,3,9-trimethyl-6H-thieno[3,2-f][1,2,4]triazolo[4,3-a][1,4]diaza-6-yl)methyl) -1,3,4-oxodiazole-2-yl)methyl) methanesulfonamide], the half-inhibitory concentration (IC50) was determined as 63 nM. The same measure, in the same setting: with `Cc1sc2c(c1C)C(c1ccc(Cl)cc1)=N[C@@H](Cc1nnc(CNCCO)o1)c1nnc(C)n1-2` [Compound 14, (S)-2-(((5-((4-(4-chlorophenyl)-2,3,9-trimethyl-6H-thieno[3,2-f][1,2,4]triazolo[4,3-a][1,4]diaza-6-yl)methyl)-1,3,4-oxodiazole-2-yl)methyl)amino)ethanol] the figure was 163 nM; with `COCc1nnc(C[C@@H]2N=C(c3ccc(Cl)cc3)c3c(sc(C)c3C)-n3c(C)nnc32)o1` [Compound 5, (S)-2-((4-(4-chlorophenyl)-2,3,9-trimethyl-6H-thieno[3,2-f][1,2,4]triazolo[4,3-a][1,4]diaza-6-yl)methyl)-5-(methoxylmethyl)-1,3,4-oxodiazole], 45 nM.

For `Cc1sc2c(c1C)C(c1ccc(Cl)cc1)=N[C@@H](Cc1nnc(CN3CC(C(=O)O)C3)o1)c1nnc(C)n1-2` [Compound 17, (5)-1-((5-((4-(4-chlorophenyl)-2,3,9-trimethyl-6H-thieno[3,2-f][1,2,4]triazolo[4,3-a][1,4]diaza-6-yl)methyl)-1,3,4-oxodiazole-2-yl)methyl)azacyclobutane-3-carboxylic acid], the 50% inhibitory concentration (IC50) was 2380 nM. As for `Cc1sc2c(c1C)C(c1ccc(Cl)cc1)=N[C@@H](Cc1nnc(CN3CC(O)C3)o1)c1nnc(C)n1-2` [Compound 18, (5)-1-((5-((4-(4-chlorophenyl)-2,3,9-trimethyl-6H-thieno[3,2-f][1,2,4]triazolo[4,3-a][1,4]diaza-6-yl)methyl)-1,3,4-oxodiazole-2-yl)methyl)azacyclobutane-3-ol], the IC50 worked out at 89 nM. As for `C=CC(=O)NCc1nnc(C[C@@H]2N=C(c3ccc(Cl)cc3)c3c(sc(C)c3C)-n3c(C)nnc32)o1` [Compound 11, (S)-N-((5-((4-(4-chlorophenyl)-2,3,9-trimethyl-6H-thieno[3,2-f][1,2,4]triazolo[4,3-a][1,4]diaza-6-yl)methyl)-1,3,4-oxodiazole-2-yl)methyl)acrylamide], the IC50 is 54 nM. Still for that read-out and setting: with `Cc1sc2c(c1C)C(c1ccc(Cl)cc1)=N[C@@H](Cc1nnc(CN3CCC(C(=O)O)CC3)o1)c1nnc(C)n1-2` [Compound 16, (5)-1-((5-((4-(4-chlorophenyl)-2,3,9-trimethyl-6H-thieno[3,2-f][1,2,4]triazolo[4,3-a][1,4]diaza-6-yl)methyl)-1,3,4-oxodiazole-2-yl)methyl)piperidin-4-carboxylic acid] the figure was 2650 nM.

In general, IC50 refers to the concentration at which inhibition is half-maximal.

The values are drawn from US11572371B2, “BRD4 inhibitor” (HINOVA PHARMACEUTICALS INC., priority 2017, dated 2023).
